Experimental data published in patent publication US7858349B2, “Anti-cancer compounds” (The Regents of the University of Colorado, priority 1999, dated 2010).
Like-named read-outs stand apart in the source and are kept apart here.

How the values were obtained:
A549 NSCLC cells = assay: Inhibition of A-549 tumor growth in vivo in nude mice; parameters: species or system athymic nude mice; details: percent inhibition of tumor growth in nude mice; i.p. 5 mg/kg/every second day or 10 mg/kg/every fourth day
Protocol: Compounds having high in vitro cytotoxic activity were tested against implanted tumors in vivo. Athymic nude mice were implanted subcutaneously with suspensions (2 million SHP-77 SCLC cells, 1 million A549 NSCLC cells or 1.5 million PC3 PC cells) in Matrigel suspension. On the eighth day after tumor implantation groups of 5 mice bearing implants were injected intraperitoneally with the compounds being tested at 5 mg/kg/every second day or at 10 mg/kg/every fourth day; control animals were injected with an equal volume of isotonic saline. Less soluble compounds were initially dissolved in dimethyl sulfoxide (DMSO) and diluted with medium. In those cases the control injections contained the same concentration of DMSO. Tumor size was measured with a caliper three times per week. Tumor volume was calculated by the formula: Volume(cc)=3.14×(length)×(width)^2/6 At autopsy tumors were removed and weighed. Tumor inhibition was calculated on both weight and measurement basis. In each Table, an IC50 value of “0” represents no detectable anti-cancer activity for a drug in a given cell line and “Stim.” indicates the observation of a stimulatory activity on the growth of the cancer cell line.

SCLC strain SHP-77 = assay: MTT assay for cell survival, SCLC SHP-77 in vitro; format: cell-based, human; details: ED50 for killing of SCLC strain SHP-77 in vitro, 4 days, 0 = no detectable activity
PC3 PC cells = assay: Inhibition of PC3 tumor growth in vivo in nude mice; parameters: species or system athymic nude mice; key to PC3 In vivo % inhib.: an IC50 value of “0” represents no detectable anti-cancer activity for a drug in a given cell line; “Stim.” indicates the observation of a stimulatory activity on the growth of the cancer cell line; details: percent inhibition of tumor growth in nude mice; prostate cancer; i.p. 5 mg/kg/every second day or 10 mg/kg/every fourth day
Outline: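 Athymic nude mice carrying subcutaneous Matrigel implants (2 million SHP-77, 1 million A549 or 1.5 million PC3 cells) received intraperitoneal compound from day 8, 5 mg/kg every second day or 10 mg/kg every fourth day, 5 mice/group, vehicle controls. Inhibition from caliper volume (3.14×L×W²/6, thrice weekly) and tumor weight at autopsy.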

NSCLC strain A-549 = assay: MTT assay for cell survival, NSCLC A-549 in vitro; format: cell-based, human; details: ED50 for killing of NSCLC strain A-549 in vitro, 4 days

Compound	A-549 In vivo % inhib. (A549 NSCLC cells)	IC50 (SCLC strain SHP-77; read-out: SHP-77 In vitro IC50)	PC3 In vivo % inhib. (PC3 PC cells)	IC50 (NSCLC strain A-549)	IC50 (SCLC strain SHP-77; read-out: SCLC SHP-77 IC50)
CC1(C)CC(NC(=O)C(Cc2ccc(OCc3c(Cl)cccc3Cl)cc2)NC(=O)C(c2ccccc2)C2CCCCC2)CC(C)(C)N1 (single isomer, unassigned) [M-1124#2, Chpa-OC2Y-Atmp]	4.5%	3.5 µM			
CC1(C)CC(NC(=O)C(Cc2ccc(OCc3c(Cl)cccc3Cl)cc2)NC(=O)C(C)(c2ccccc2)c2ccccc2)CC(C)(C)N1 (stereo not drawn) [Analog M-1126, 22Dp-OC2Y-Atmp]	36%	4 µM			
O=C(NC1CCN(Cc2ccccc2)CC1)C(Cc1c(F)c(F)c(F)c(F)c1F)NC(=O)C(c1ccc(Cl)cc1)c1ccc(Cl)cc1 (stereo not drawn) [Analog M-1188, Bcpa-F5F-Abzp]	17%	4.5 µM			
O=C(C=Cc1c(F)c(F)c(F)c(F)c1F)NC(Cc1ccc2ccccc2c1)C(=O)N(Cc1ccccn1)Cc1ccccn1 (stereo not drawn) [Analog M-1200, F5c-Nal-Dpic]	Stim	5 µM			
O=C(C=Cc1c(F)c(F)c(F)c(F)c1F)NC(Cc1ccc(-c2ccccc2)cc1)C(=O)N1CC2CC1CN2c1ccc(F)cc1 (stereo not drawn) [Analog M-1272, F5c-Bip-Fpdh]			71%	22 µM	10 µM
CC1(C)CC(NC(=O)C(Cc2ccc(-c3ccccc3)cc2)NC(=O)C(c2ccc(Cl)cc2)c2ccc(Cl)cc2)CC(C)(C)N1 (stereo not drawn) [Analog M-1274, Bcpa-Bip-Atmp]				7.3 µM	2.1 µM
O=C(NC(Cc1ccc(-c2ccccc2)cc1)C(=O)N1CC2CC1CN2Cc1ccccc1)C(c1ccc(Cl)cc1)c1ccc(Cl)cc1 (stereo not drawn) [Analog M-1276, Bcpa-Bip-Bdbh]			56%	20 µM	> 60 µM
O=C(C=Cc1c(F)c(F)c(F)c(F)c1F)NC(Cc1ccc(I)cc1)C(=O)N1CC2CC1CN2Cc1ccccc1 (stereo not drawn) [Analog M-1280, F5c-PIF-Bdbh]			40%	20 µM	10 µM
O=C(C=Cc1c(F)c(F)c(F)c(F)c1F)NC(Cc1ccc(I)cc1)C(=O)N1CCC2(CC1)OCCO2 (stereo not drawn) [Analog M-1284, F5c-PIF-Dasd]			Stim.	20 µM	22 µM
O=C(C=Cc1c(F)c(F)c(F)c(F)c1F)NC(Cc1ccc(I)cc1)C(=O)NC1CN2CCC1CC2 [Analog M-1286, F5c-PIF-(R)-(+)-Aqu]				9 µM	4.3 µM
O=C(C=Cc1c(F)c(F)c(F)c(F)c1F)NC(Cc1ccc(-c2ccccc2)cc1)C(=O)NC1CN2CCC1CC2 [Analog M-1288, F5c-Bip-(R)-(+)-Aqu]				7.3 µM	4.3 µM
O=C(C=Cc1c(F)c(F)c(F)c(F)c1F)NC(Cc1ccc(I)cc1)C(=O)NC1CN2CCC1CC2 [Analog M-1290, F5c-PIF-(S)-(−)-Aqu]				14 µM	
O=C(C=Cc1c(F)c(F)c(F)c(F)c1F)NC(Cc1ccc(-c2ccccc2)cc1)C(=O)NC1CN2CCC1CC2 [Analog M-1292, F5c-Bip-(S)-(−)-Aqu]				9.8 µM	
O=C(C=Cc1c(F)c(F)c(F)c(F)c1F)NC(Cc1ccc(I)cc1)C(=O)N1CCCN(Cc2ccccc2)CC1 (stereo not drawn) [Analog M-1294, F5c-PIF-Bhp]			44%	22 µM	
O=C(C=Cc1c(F)c(F)c(F)c(F)c1F)NC(Cc1ccc(I)cc1)C(=O)N1CCN(c2ccc(Cl)cc2)CC1 (stereo not drawn) [Analog M-1298, F5c-PIF-Cpp]				21 µM	
O=C(C=Cc1c(F)c(F)c(F)c(F)c1F)NC(Cc1ccc(I)cc1)C(=O)N1CCN(C(c2ccccc2)c2ccc(Cl)cc2)CC1 (stereo not drawn) [Analog M-1300, F5c-PIF-Cbp]				21 µM	
O=C(C=Cc1c(F)c(F)c(F)c(F)c1F)NC(Cc1ccc(I)cc1)C(=O)N1CCN(CCc2ccccc2)CC1 (stereo not drawn) [Analog M-1304, F5c-PIF-Pep]				17 µM	
O=C(C=Cc1c(F)c(F)c(F)c(F)c1F)NC(Cc1ccc(I)cc1)C(=O)N1CCN(CCCc2ccccc2)CC1 (stereo not drawn) [Analog M-1308, F5c-PIF-Ppp]				14 µM	

Compound	A-549 In vivo % inhib. (A549 NSCLC cells)	IC50 (SCLC strain SHP-77; read-out: SHP-77 In vitro IC50)	PC3 In vivo % inhib. (PC3 PC cells)	IC50 (NSCLC strain A-549)	IC50 (SCLC strain SHP-77; read-out: SCLC SHP-77 IC50)
O=C(C=Cc1c(F)c(F)c(F)c(F)c1F)NC(Cc1ccc(I)cc1)C(=O)N1CCN(Cc2ccc(Cl)cc2)CC1 (stereo not drawn) [Analog M-1310, F5c-PIF-4-Clbp]			Stim.	12 µM	
O=C(C=Cc1c(F)c(F)c(F)c(F)c1F)NC(Cc1ccc(I)cc1)C(=O)NC1CCN(Cc2ccccc2)C1 (stereo not drawn) [Analog M-1312, F5c-PIF-BapS]			33%	13 µM	
O=C(C=Cc1c(F)c(F)c(F)c(F)c1F)NC(Cc1ccc(I)cc1)C(=O)N1CCN(CC2CCCCC2)CC1 (stereo not drawn) [Analog M-1314, F5c-PIF-Chmp]				21 µM	
C=CCN1CCN(C(=O)C(Cc2ccc(I)cc2)NC(=O)C=Cc2c(F)c(F)c(F)c(F)c2F)CC1 (stereo not drawn) [Analog M-1316, F5c-PIF-Alp]				20 µM	
C=CCN(CC=C)CCN1CCN(C(=O)C(Cc2ccc(I)cc2)NC(=O)C=Cc2c(F)c(F)c(F)c(F)c2F)CC1 (stereo not drawn) [Analog M-1318, F5c-PIF-Daep]				8.4 µM	
N#Cc1ccc(N2CCN(C(=O)C(Cc3ccc(I)cc3)NC(=O)C=Cc3c(F)c(F)c(F)c(F)c3F)CC2)cc1 (stereo not drawn) [Analog M-1320, F5c-PIF-4-Cypp]				17 µM	
O=C(C=Cc1c(F)c(F)c(F)c(F)c1F)NC(Cc1ccc(I)cc1)C(=O)N1CCN(Cc2ccc(F)cc2)CC1 (stereo not drawn) [Analog M-1322, F5c-PIF-Fbp]			46%	13 µM	
O=C(C=Cc1c(F)c(F)c(F)c(F)c1F)NC(Cc1ccc(I)cc1)C(=O)NC1CCN(Cc2ccccc2)C1 (stereo not drawn) [Analog M-1326, F5c-PIF-BapR]			0.6%	10 µM	
CCCCCCCCN1CCN(C(=O)C(Cc2ccc(I)cc2)NC(=O)C=Cc2c(F)c(F)c(F)c(F)c2F)CC1 (stereo not drawn) [Analog M-1330, F5c-PIF-Ocp]			40%	17 µM	
Cc1ccc(CN2CCN(C(=O)C(Cc3ccc(I)cc3)NC(=O)C=Cc3c(F)c(F)c(F)c(F)c3F)CC2)cc1 (stereo not drawn) [Analog M-1332, F5c-PIF-4-Mbp]			63%	7.8 µM	
Cc1cc(C)c(CN2CCN(C(=O)C(Cc3ccc(I)cc3)NC(=O)C=Cc3c(F)c(F)c(F)c(F)c3F)CC2)c(C)c1 (stereo not drawn) [Analog M-1334, F5c-PIF-Tmbp]			50%	19 µM	
O=C(C=Cc1c(F)c(F)c(F)c(F)c1F)NC(Cc1ccc(I)cc1)C(=O)N1CCN(C(c2ccc(F)cc2)c2ccc(F)cc2)CC1 (stereo not drawn) [Analog M-1336, F5c-PIF-Fpmp]			71%	12 µM	
COc1ccc2cc(C(C)C(=O)NC(Cc3ccc(OCc4c(Cl)cccc4Cl)cc3)C(=O)NC3CC(C)(C)NC(C)(C)C3)ccc2c1 (stereo not drawn) [Analog M-1380, Napr-OC2Y-Atmp]			26%	1.6 µM	1.7 µM
CC1(C)CC(NC(=O)C(Cc2ccc(OCc3c(Cl)cccc3Cl)cc2)NC(=O)c2ccc(NC(=N)N)cc2)CC(C)(C)N1 (stereo not drawn) [Analog M-1390, Gbz-OC2Y-Atmp]			Stim.	4.3 µM	> 40 µM
CC1(C)CC(NC(=O)[C@H](Cc2ccc(OCc3c(Cl)cccc3Cl)cc2)NC(=O)C(C#N)=Cc2ccc(O)cc2)CC(C)(C)N1 [Analog M-1638, Chc-OC2Y-Atmp]			39%		18 µM
CC1(C)CC(NC(=O)C(Cc2ccc(OCc3c(Cl)cccc3Cl)cc2)NC(=O)C=Cc2ccc(N)cc2)CC(C)(C)N1 (stereo not drawn) [Analog M-1648, Pac-OC2Y-Atmp]			28%		7.6 µM
CC1(C)CC(NC(=O)[C@H](Cc2ccc(OCc3c(Cl)cccc3Cl)cc2)NC(=O)CC2CC3CCC2C3)CC(C)(C)N1 (stereo partly drawn) [Analog M-1650, Nba-OC2Y-Atmp]			40%		4.3 µM
